Source: patent US20190029970A1, “FATTY ACID CONJUGATED NANOPARTICLES AND USES THEREOF” (The Chinese University of Hong Kong, priority 2017, published 2019)

Assay: In vitro release of curcumin by dialysis in 0.1% Tween 20 at 37° C.
Type: physicochemical
Conditions: within 24 hours; free curcumin 2 mg/mL in 2-propanol
Protocol: The in vitro release profiles of the drug-loaded NPs were assessed in 0.1% Tween 20 at 37° C. based on a dialysis method reported earlier with modifications. Briefly, 1 mL of the NPs was added into a dialysis tube (Float-A-lyzer G2 with a membrane MWCO 3.5-5 kD, Spectrum Laboratories, Inc., Rancho Dominguez, Calif., USA), which was subsequently placed in 250 mL of 0.1% Tween 20 at 37° C. Dialysate was replaced periodically. Samples (10 μL) were withdrawn from the dialysis tube at designated time points. The samples collected were analyzed using a UPLC-UV method and GraphPad Prism 5 was employed to plot the cumulative drug release versus time. The diffusional behaviour of curcumin (2 mg/mL in isopropanol) was also determined using the same procedure, except the dialysate was replaced with isopropanol.

curcumin released: > 80%
SMILES: COc1cc(/C=C/C(=O)CC(=O)/C=C/c2ccc(O)c(OC)c2)ccc1O [free curcumin, curcumin]
